Reference: patent US11572359B2, “PARP/PI3K double-target inhibit containing pyridopyrimidine structure” (CHINA PHARMACEUTICAL UNIVERSITY, priority 2017, dated 2023)
Like-named read-outs stand apart in the source and are kept apart here.

Experiments:
[1] = test system: Human Breast Cancer MDA-MB-468 Cell Nude Mice Xenograft; experiment: Growth of human breast cancer MDA-MB-468 cell nude mice xenograft; type: in vivo; conditions: abdominal cavity, once every 2 days; for Tumor weights: after 34 days, in g (unit assumed)
Protocol: Preparing an MDA-MB-468 cell line in a logarithmic growth phase into a 2×10^7/mL cell suspension under sterile conditions, and inoculating 0.1 mL of the cell suspension under the skin of the right axilla of each nude mouse. Measuring the diameter of a nude mice xenograft with a vernier caliper, and randomly dividing the animals into groups after the tumors grew to about 100 mm^3. Dynamically observing an anti-tumor effect of the tested animals using a method of measuring the tumor diameter, wherein the frequency of measurements of the tumor diameter is once every 2 days, and the administration volume is 0.4 mL/20 g. After 34 days, killing the mice and surgically removing and weighing tumor pieces. The formula for calculating tumor volume (TV) is: TV=½×a×b^2, wherein a and b represent the length and the width respectively.

PI3Kα = PI3Kα (Homo sapiens, UniProt P42336); experiment: PI3Kα inhibitory activity at the enzyme level (ADP detection by luciferase method); type: biochemical; conditions: for inhibition at 0.1 µM: 100 nM compound, read-out: Inhibition rate on PI3Kα (100 nM)
PI3Kα, sequence (P42336 whole entry): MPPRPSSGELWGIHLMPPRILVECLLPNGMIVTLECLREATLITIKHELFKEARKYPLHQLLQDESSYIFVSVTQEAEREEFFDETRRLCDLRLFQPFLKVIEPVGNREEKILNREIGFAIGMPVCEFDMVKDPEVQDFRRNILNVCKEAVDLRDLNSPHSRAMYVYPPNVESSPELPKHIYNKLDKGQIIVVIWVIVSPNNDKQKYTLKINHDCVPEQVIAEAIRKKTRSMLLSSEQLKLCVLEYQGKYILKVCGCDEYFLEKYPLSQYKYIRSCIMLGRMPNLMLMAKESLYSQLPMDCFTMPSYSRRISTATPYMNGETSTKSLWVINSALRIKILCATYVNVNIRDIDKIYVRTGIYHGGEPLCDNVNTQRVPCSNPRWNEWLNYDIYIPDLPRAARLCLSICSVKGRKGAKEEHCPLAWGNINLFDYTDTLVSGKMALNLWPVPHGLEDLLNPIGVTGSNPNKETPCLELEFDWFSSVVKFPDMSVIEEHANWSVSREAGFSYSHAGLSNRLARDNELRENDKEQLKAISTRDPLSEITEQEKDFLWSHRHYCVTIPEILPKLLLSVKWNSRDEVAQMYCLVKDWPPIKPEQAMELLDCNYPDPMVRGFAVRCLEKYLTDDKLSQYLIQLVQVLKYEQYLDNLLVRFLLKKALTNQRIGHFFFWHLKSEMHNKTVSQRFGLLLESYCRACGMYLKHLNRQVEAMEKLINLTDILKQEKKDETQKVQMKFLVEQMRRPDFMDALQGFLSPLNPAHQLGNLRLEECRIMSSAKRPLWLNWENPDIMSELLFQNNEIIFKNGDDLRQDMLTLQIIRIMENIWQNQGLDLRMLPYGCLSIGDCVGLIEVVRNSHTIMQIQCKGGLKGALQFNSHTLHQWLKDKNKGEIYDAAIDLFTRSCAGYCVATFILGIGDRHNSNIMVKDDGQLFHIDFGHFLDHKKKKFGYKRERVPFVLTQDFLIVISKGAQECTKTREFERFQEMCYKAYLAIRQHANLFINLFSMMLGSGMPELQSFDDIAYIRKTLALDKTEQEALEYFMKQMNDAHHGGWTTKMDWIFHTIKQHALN
PI3Kα, sequence (P27986 whole entry partner): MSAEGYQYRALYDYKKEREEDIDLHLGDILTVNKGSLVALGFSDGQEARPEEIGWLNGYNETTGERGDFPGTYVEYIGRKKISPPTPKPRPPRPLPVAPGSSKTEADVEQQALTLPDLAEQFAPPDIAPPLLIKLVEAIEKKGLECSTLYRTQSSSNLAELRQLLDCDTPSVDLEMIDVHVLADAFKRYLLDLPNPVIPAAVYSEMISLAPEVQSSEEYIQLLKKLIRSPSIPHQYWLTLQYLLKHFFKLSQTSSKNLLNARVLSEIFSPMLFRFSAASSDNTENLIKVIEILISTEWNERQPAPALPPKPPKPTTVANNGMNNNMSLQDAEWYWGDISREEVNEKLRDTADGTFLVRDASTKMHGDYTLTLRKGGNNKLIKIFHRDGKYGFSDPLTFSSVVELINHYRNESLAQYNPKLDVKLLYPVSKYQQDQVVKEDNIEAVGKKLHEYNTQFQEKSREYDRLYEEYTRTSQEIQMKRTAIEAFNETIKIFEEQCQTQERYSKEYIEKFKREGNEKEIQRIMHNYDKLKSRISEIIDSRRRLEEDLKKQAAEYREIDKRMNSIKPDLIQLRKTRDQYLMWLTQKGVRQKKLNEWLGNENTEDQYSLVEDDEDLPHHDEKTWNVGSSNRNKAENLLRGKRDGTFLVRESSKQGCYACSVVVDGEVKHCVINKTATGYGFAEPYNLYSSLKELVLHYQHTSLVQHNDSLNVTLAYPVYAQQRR
Protocol: Experimental method for PI3Kα inhibitory activity: simultaneously adding 40 mM Tris, pH 7.4, 10 mM MgCl2, 0.1 mg/ml BSA, 1 mM DTT, 10 μM ATP, PI3Kα kinase and a kinase substrate into different concentrations of compounds to be sieved to form a 50 μL reaction system, after reaction at 30° C. for 40 minutes, detecting an ADP content in the system through a luciferase method, and then after reaction for 5 minutes, detecting a chemiluminescence signal on an MD-SpectraMax M5 multi-function microplate reader, wherein the intensity of a value of the chemiluminescence signal is in direct proportion to […]. The detected value of the chemiluminescence signal is substituted into the following formula: Enzyme activity percentage (%)=(OD value administration hole-OD value background)/(OD value control hole−OD value background)×100%
(§1) Method for determining IC50 of PARP-1 and PI3Kα: diluting a drug concentration according to a three-fold concentration gradient, and detecting two duplicate wells at each concentration; taking the drug concentration as the abscissa and the percentage of enzyme activity corresponding to each concentration as the ordinate, and calculating to obtain inhibition IC50 values of all tested compounds by using Graphpad Prism5 for nonlinear regression.

PARP-1 = PARP-1 (Homo sapiens, UniProt P09874); experiment: PARP-1 inhibitory activity at the enzyme level (histone-coated plate, chemiluminescence); type: biochemical; conditions: for inhibition at 0.01 µM: 10 nM compound, read-out: Inhibition rate on PARP-1 (10 nM)
PARP-1, sequence (P09874 whole entry): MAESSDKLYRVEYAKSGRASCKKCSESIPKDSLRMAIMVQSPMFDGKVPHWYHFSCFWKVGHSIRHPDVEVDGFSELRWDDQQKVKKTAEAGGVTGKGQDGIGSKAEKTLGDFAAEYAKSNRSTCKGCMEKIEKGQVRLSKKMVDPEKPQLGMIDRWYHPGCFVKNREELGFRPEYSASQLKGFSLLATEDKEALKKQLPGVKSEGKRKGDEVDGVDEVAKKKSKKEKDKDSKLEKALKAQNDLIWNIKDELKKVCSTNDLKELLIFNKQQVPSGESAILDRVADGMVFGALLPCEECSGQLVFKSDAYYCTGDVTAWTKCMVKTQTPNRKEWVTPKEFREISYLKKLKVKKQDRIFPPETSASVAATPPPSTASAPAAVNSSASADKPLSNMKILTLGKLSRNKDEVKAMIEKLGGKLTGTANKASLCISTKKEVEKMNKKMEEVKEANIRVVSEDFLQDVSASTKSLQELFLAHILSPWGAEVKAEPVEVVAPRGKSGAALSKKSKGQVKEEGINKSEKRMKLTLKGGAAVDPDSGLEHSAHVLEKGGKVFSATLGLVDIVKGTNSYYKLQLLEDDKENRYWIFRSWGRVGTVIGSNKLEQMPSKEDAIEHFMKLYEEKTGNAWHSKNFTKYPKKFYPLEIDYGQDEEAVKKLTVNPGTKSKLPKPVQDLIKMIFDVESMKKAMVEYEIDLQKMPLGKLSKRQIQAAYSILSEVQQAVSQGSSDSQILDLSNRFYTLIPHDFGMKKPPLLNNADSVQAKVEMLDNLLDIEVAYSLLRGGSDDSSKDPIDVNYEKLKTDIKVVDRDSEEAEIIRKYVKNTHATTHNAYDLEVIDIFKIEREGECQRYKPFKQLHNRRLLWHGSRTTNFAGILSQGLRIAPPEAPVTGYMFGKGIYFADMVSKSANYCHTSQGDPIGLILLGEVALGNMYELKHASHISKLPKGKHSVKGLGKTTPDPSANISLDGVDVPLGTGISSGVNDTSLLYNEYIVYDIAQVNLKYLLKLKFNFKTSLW
Protocol: Experimental method for PARP-1 inhibitory activity: taking out a 96-well plate pre-coated with histones, and adding a following enzyme reaction system and inhibitors of different concentrations into each well, including: 50 μL of a reaction buffer solution (Tris*HCl, pH 8.0), NAD^+, biotin-labeled activated DNA, PARP-1 enzyme, and an inhibitor; after reaction at a room temperature for 1 hour, adding 50 uL of avidin-labeled HRP into each well for reaction for 30 minutes; and then adding 100 μL of an HRP substrate, and detecting a chemiluminescence value on a SpectraMax M instrument. The percentage of enzyme activity is calculated by the following formula: Enzyme activity percentage (%)=(OD value administration hole-OD value background)/(OD value control hole−OD value background)×100%
as §1

[2] = test system: MDA-MB-468 (human breast cancer cells); experiment: Tumor cell proliferation inhibition (SRB, 72 hours), MDA-MB-468; type: cell-based
Protocol: Inoculating HCT116 (human colon cancer cells), HCC1937 (human breast cancer cells), MDA-MB-231 (human breast cancer cells) and MDA-MB-468 (human breast cancer cells) in a logarithmic growth phase with a certain quantity in a 96-well plate (200 μL/well) for culture for 24 hours so as to adhere to walls and then adding drugs. Arranging 3 duplicate wells for each drug concentration, and setting corresponding zero-cut holes and blank controls. After 72 hours of drug action, adding 50% TCA (50 μL/well) into adherent cells, fixing at 4° C. for 1 hour, pouring a fixing solution, washing for 5 times with distilled water, and naturally drying. Adding 100 μL of 4 mg/mL SRB into each well, staining at a room temperature for 15 minutes, discarding, washing for 5 times with 1% glacial acetic acid, and naturally drying. Finally, adding 150 μL of a 10 mM Tris solution into each well, shaking to be uniform, and measuring OD values at a wavelength of 565 nm using a wavelength-adjustable microplate reader (VERSAmax™, Molecular Device).

In the case of `Nc1cc(C(F)(F)F)c(-c2cc(N3CCOCC3)nc(N3CCOCC3)n2)cn1` [BKM120, reference compound], the “Tumor Volumes” value ([1]; 0 day, 27.5 mg/kg) is reported as 94.67 mm^3, the “Tumor Volumes” value ([1]; 6 days, 27.5 mg/kg) is reported as 203.83 mm^3 and the “Tumor Volumes” value ([1]; 12 days, 27.5 mg/kg) is reported as 294.34 mm^3. For the same molecule, the “Tumor Volumes” value ([1]; 18 days, 27.5 mg/kg) was 388.09 mm^3, the “Tumor Volumes” value ([1]; 24 days, 27.5 mg/kg) was 525.13 mm^3 and the “Tumor Volumes” value ([1]; 30 days, 27.5 mg/kg) was 677.51 mm^3. The “Tumor Volumes” value ([1]; 34 days, 27.5 mg/kg) was 777.59 mm^3 and the Tumor weights ([1]; 27.5 mg/kg) was 1.36.

`O=C(CN1CCOCC1)Nc1cc(C(F)(F)F)c(-c2nc3c(c(N4CCOCC4)n2)CCN(C(=O)c2cc(Cc4n[nH]c(=O)c5ccccc45)ccc2F)C3)cn1` [I-4, N-(5-(7-(2-fluoro-5-((4-oxo-3,4-dihydrophthalazin-1-yl)methyl)benzoyl)-4-morpholinyl-5,6,7,8-tetrahydropyrido[3,4-cl]pyrimidin-2-yl)-4-(trifluoromethyl)pyridin-2-yl)-2-morpholinyl acetamide] gave an inhibition at 0.1 µM (PI3Kα) of 53% and an inhibition at 0.01 µM (PARP-1) of 67%.

`Nc1ncc(-c2nc3c(c(N4CCOCC4)n2)CCN(C(=O)c2cc(Cc4n[nH]c(=O)c5ccccc45)ccc2F)C3)cc1C(F)(F)F` [I-5, 4-(3-(2-(6-amino-5-(trifluoromethyl)pyridin-3-yl)-4-morpholinyl-5,6,7,8-tetrahydropyrido [3,4-d]pyrimidin-7-formyl)-4-fluorobenzyl)phthalazin-1(2H)-one] showed an inhibition at 0.1 µM (PI3Kα) of 17%, an inhibition at 0.01 µM (PARP-1) of 81% and a melting point of 256 to 258 °C.

Molecule `Nc1ccc(-c2nc3c(c(N4CCOCC4)n2)CCN(C(=O)c2cc(Cc4n[nH]c(=O)c5ccccc45)ccc2F)C3)c(F)c1` [I-6, 4-(3-(2-(4-amino-2-fluorophenyl)-4-morpholinyl-5,6,7,8-tetrahydropyrido[3,4-d]pyrimidin-7-formyl)-4-fluorobenzyl)phthalazin-1(2H)-one] has an inhibition at 0.1 µM (PI3Kα) of 24%, an inhibition at 0.01 µM (PARP-1) of 89% and a melting point of 204 to 206 °C.

In the case of `Nc1cc(-c2nc3c(c(N4CCOCC4)n2)CCN(C(=O)c2cc(Cc4n[nH]c(=O)c5ccccc45)ccc2F)C3)ccc1F` [I-7, 4-(3-(2-(3-amino-4-fluorophenyl)-4-morpholinyl-5,6,7,8-tetrahydropyrido[3,4-d]pyrimidin-7-formyl)-4-fluorobenzyl)phthalazin-1(2H)-one], the inhibition at 0.1 µM (PI3Kα) is reported as 27%, the inhibition at 0.01 µM (PARP-1) is reported as 83% and the melting point is reported as 236 to 239 °C.

In the case of `O=C(c1cc(Cc2n[nH]c(=O)c3ccccc23)ccc1F)N1CCc2c(nc(-c3ccc4[nH]ccc4c3)nc2N2CCOCC2)C1` [I-9, 4-(3-(2-(1H-indole-5-yl)-4-morpholinyl-5,6,7,8-tetrahydropyrido[3,4-d]pyrimidin-7-formyl)-4-fluorobenzyl)phthalazin-1(2H)-one], the inhibition at 0.1 µM (PI3Kα) is reported as 30%, the inhibition at 0.01 µM (PARP-1) is reported as 85% and the melting point is reported as 238 to 240 °C.

With `O=C(c1cc(Cc2n[nH]c(=O)c3ccccc23)ccc1F)N1CCc2c(nc(-c3cccc4[nH]ccc34)nc2N2CCOCC2)C1` [I-10, 4-(3-(2-(1H-indole-4-yl)-4-morpholinyl-5,6,7,8-tetrahydropyrido[3,4-d]pyrimidin-7-formyl)-4-fluorobenzyl)phthalazin-1(2H)-one] the inhibition at 0.1 µM (PI3Kα) was 15% and the inhibition at 0.01 µM (PARP-1) was 88%.

For `C[C@H]1COCCN1c1nc(-c2cnc(N)nc2)nc2c1CCN(C(=O)c1cc(Cc3n[nH]c(=O)c4ccccc34)ccc1F)C2` [I-11, (S)-4-(3-(2-(2-aminopyrimidin-5-yl)-4-(3-methylmorpholinyl)-5,6,7,8-tetrahydropyrido [3,4-d]pyrimidin-7-formyl)-4-fluorobenzyl)phthalazin-1(2H)-one], the IC50 (PI3Kα) was 0.0298 µM, the inhibition at 0.1 µM (PI3Kα) was 67% and the IC50 (PARP-1) was 0.000376 µM. The inhibition at 0.01 µM (PARP-1) was 94%, the melting point was 214 to 216 °C and the IC50 [2] was 0.738 µM. It also gave an IC50 ([2]; Homo sapiens, MDA-MB-468, 72 h) of under 1 µM.

In the case of `O=C(c1cc(Cc2n[nH]c(=O)c3ccccc23)ccc1F)N1CCN(C(=O)C2CC2)CC1` [Olaparib, reference compound], the “Tumor Volumes” value ([1]; 0 day, 50 mg/kg (I-1: medium)) is reported as 96.41 mm^3, the “Tumor Volumes” value ([1]; 6 days, 50 mg/kg (I-1: medium)) is reported as 222.00 mm^3 and the “Tumor Volumes” value ([1]; 12 days, 50 mg/kg (I-1: medium)) is reported as 324.20 mm^3. The “Tumor Volumes” value ([1]; 18 days, 50 mg/kg (I-1: medium)) was 422.84 mm^3, the “Tumor Volumes” value ([1]; 24 days, 50 mg/kg (I-1: medium)) was 566.86 mm^3 and the “Tumor Volumes” value ([1]; 30 days, 50 mg/kg (I-1: medium)) was 718.76 mm^3. For the same molecule, the “Tumor Volumes” value ([1]; 34 days, 50 mg/kg (I-1: medium)) was 834.87 mm^3 and the Tumor weights ([1]; 50 mg/kg (I-1: medium)) was 1.55.
